Results reported in PubChem BioAssay (NCI).
Values joined by “and” are separate entries in the source; they are usually repeats but may differ in a detail not shown here. Equal values may be shown once.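 How tested: cells in 96-well plates exposed to compound for 48 hours at five concentrations. GI50 = concentration required for 50% inhibition of growth. TGI denotes the concentration required for complete inhibition of growth.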

Experiments:
Test in all cases: DTP human tumour cell line panel, 48 h
A549 NSCLC = tested on: A549 NSCLC
K-562 leukemia = tested on: K-562 leukemia
CAKI-1 renal = tested on: CAKI-1 renal
HCT-116 colon = tested on: HCT-116 colon
UACC-62 melanoma = tested on: UACC-62 melanoma
HOP-92 NSCLC = tested on: HOP-92 NSCLC
SK-OV-3 ovarian = tested on: SK-OV-3 ovarian
SF-539 CNS = tested on: SF-539 CNS
MDA-MB-435 = tested on: MDA-MB-435
T-47D breast = tested on: T-47D breast

Structure (SMILES)	TGI (A549 NSCLC) [µM]	TGI (K-562 leukemia) [µM]	TGI (CAKI-1 renal) [µM]	TGI (HCT-116 colon)	TGI (UACC-62 melanoma) [µM]	TGI (HOP-92 NSCLC) [µM]	TGI (SK-OV-3 ovarian) [µM]	TGI (SF-539 CNS) [µM]	GI50 (A549 NSCLC)	GI50 (K-562 leukemia)	GI50 (CAKI-1 renal)	GI50 (HCT-116 colon)	GI50 (MDA-MB-435)	TGI (MDA-MB-435)	GI50 (UACC-62 melanoma)	GI50 (T-47D breast) [µM]	TGI (T-47D breast) [µM]	GI50 (SK-OV-3 ovarian)	GI50 (SF-539 CNS)	GI50 (HOP-92 NSCLC) [µM]
CCCCc1c2cnccc2c(CCCC)c2c1[nH]c1ccccc12	29.5	19.9	30.2	18.1 µM	23.7	47.7	42.2	12.6												
O=C(Nc1ccccc1-c1nn(CN2CCNCC2)c(=S)n(CN2CCNCC2)c1=O)C(F)(F)F	52.4	59	55.2	32.5 µM	32.5	45.8	51.4	35.3												
C=CCN1/C(=C2\SC(=S)N(c3ccc(C)cc3)C2=O)Sc2c1ncn(C)c2=O	> 100	> 100	> 100	> 100 µM	> 100	> 100	> 100	> 100												
N/N=C(\c1nc2ccc(Cl)cc2[nH]c1=O)C(O)c1ccc(Cl)c(Cl)c1 (stereo not given)	> 100	> 100		> 100 µM	> 100	> 100	> 100	> 100												
COc1ccc(C(=O)CC2=Nc3nnc(CCCCCCCc4nnc5n4C(=O)C(CC(=O)c4ccc(OC)cc4)=N5)n3C2=O)cc1	> 100	> 100	> 100	> 100 µM	> 100	> 100	> 100	> 100												
Cc1cc(C)c(C(=O)O)c(SSc2cc(C)cc(C)c2C(=O)O)c1	> 100	> 100	> 100		> 100	> 100	> 100	> 100												
CCCN(CCC)C(=O)c1nc(N)nc(-c2ccc(OC)cc2)c1-c1ccc(OC)cc1	> 100	> 100	> 100	> 100 µM	> 100	> 100	> 100	> 100												
COc1ccc(/C(C#N)=C/c2cc(OC)c(OC)c(OC)c2)cc1	> 100	31.3	> 100	> 100 µM	> 100		> 100	58	23.6 µM	4.64 µM	20.1 µM	22.9 µM	2.19 µM	12.5 µM	14.1 µM	17	67.6	35.8 µM	16.1 µM	
COC1=CC(c2ccc[nH]2)=N/C1=C\c1[nH]c(C)c(CC(=O)OCc2ccccc2)c1C	6.05		2.27	1.05 µM		0.81	2.77		0.361 µM		0.307 µM	0.219 µM	0.369 µM	1.42 µM		0.251	1.08	0.457 µM		0.244
CC1=NOC(=O)/C1=C/c1ccc([N+](=O)[O-])cc1	> 100	> 100	> 100	> 100 µM	> 100	> 100	> 100	> 100												
O=C1CNC(=O)c2[nH]cnc2N1	> 100	> 100			> 100		> 100	> 100												
COC(=O)[C@@H](C)[C@H]1CC[C@@](C)(CCC2=C(C)CC3C=C(C)CCC3C2(C)C)OO1 (stereo not given in full)	3.12		2.71	3.81 µM	3.86		3.87	3.27												
COC1CCC(OC)C(C2(C3CC(OC)CCC3OC)OC(=O)c3ccccc32)C1 (stereo not given)	> 100	> 100	> 100	> 100 µM	> 100	> 100	> 100	> 100												
CC(C)C(=O)c1c(C(F)(F)F)n([O-])c2cc(F)c(F)cc2[n+]1=O	4.14		0.5		1.92	0.972	2.85	1	1.38 µM		0.0626 µM		0.724 µM	2.15 µM	0.666 µM	1.26	3.96	1.04 µM	0.381 µM	0.191
COc1ccc2oc(-c3ccc(OC)c(OC)c3OC)cc(=O)c2c1	> 100	> 100	> 100	> 100 µM	> 100	> 100	> 100	> 100												
Nc1nc(SCc2ccccc2Cl)cc(C(=O)O)n1	> 100	> 100	> 100	> 100 µM	> 100	> 100	> 100							> 100 µM			> 100			
c1ccc(SC23C4C5C6C4C2C6C53)nc1 (stereo not given)	> 100	> 100	> 100	> 100 µM	> 100	> 100	> 100	> 100												
COC(=O)C1CC(OC(C)=O)C=C2C(=O)CCC21 (stereo not given)	> 100	29.3	55.8	29.8 µM	35.9		69.9	50.6												
COc1cc(C(C)c2cc3c(cc2OCCNC(=O)COc2cc4c(cc2C(C)c2cc(OC)c(OC)c(OC)c2)OCO4)OCO3)cc(OC)c1OC (stereo not given)	> 100	> 100	> 100	> 100 µM	> 100			> 100												
C=C1C(=O)O[C@H]2[C@H]1CC/C(COC(=O)CCCc1c[nH]c3ccccc13)=C\CC[C@@]1(C)O[C@@H]21	22.4	11		2.36 µM	3.79	3.46	32.8	3.07	5.47 µM	2.6 µM		0.963 µM	1.74 µM	3.55 µM	1.84 µM	2.17	4.81	17.3 µM	1.63 µM	1.68
C=C1C(=O)O[C@H]2[C@H]1CC/C(COC(=O)OC/C1=C/CC[C@@]3(C)O[C@H]3[C@H]3OC(=O)[C@@H](CN(C)C)[C@@H]3CC1)=C\CC[C@@]1(C)O[C@@H]21	24.3			2.35 µM	5.13	1.98	25.4	4.4	10.8 µM			1.13 µM	1.81 µM	4.31 µM	1.85 µM	0.714	3.08	12.8 µM	1.8 µM	0.497
Nc1ccc(COC(O)CN2CCCCC2)cc1[N+](=O)[O-] (stereo not given)	> 100	> 100	> 100	> 100 µM	> 100	> 100		> 100						> 100 µM			> 100			

Structure (SMILES)	TGI (A549 NSCLC) [µM]	TGI (K-562 leukemia) [µM]	TGI (CAKI-1 renal) [µM]	TGI (HCT-116 colon)	TGI (UACC-62 melanoma) [µM]	TGI (HOP-92 NSCLC) [µM]	TGI (SK-OV-3 ovarian) [µM]	TGI (SF-539 CNS) [µM]	GI50 (A549 NSCLC)	GI50 (K-562 leukemia)	GI50 (CAKI-1 renal)	GI50 (HCT-116 colon)	GI50 (MDA-MB-435)	TGI (MDA-MB-435)	GI50 (UACC-62 melanoma)	GI50 (T-47D breast) [µM]	TGI (T-47D breast) [µM]	GI50 (SK-OV-3 ovarian)	GI50 (SF-539 CNS)	GI50 (HOP-92 NSCLC) [µM]
CCn1c2c(c3ccccc31)[C@@H](c1ccc(Cl)cc1)CC1C(=O)N(c3ccccc3)C(=O)C21 (stereo not given in full)	> 100	> 100	> 100	> 100 µM	> 100	90.5	> 100	97.1												
CC(=O)NNc1nc(C)c(C(=O)/C=C/c2ccc(Cl)cc2)s1	> 100	> 100	> 100		> 100	> 100	> 100	> 100												
Cc1nc(N)nc(N)c1CCCc1ccccc1	> 100	> 100	> 100	> 100 µM	> 100	46.6	> 100	> 100												
Cc1ccc(S(=O)(=O)OC(COC(=O)c2ccccc2)C(OS(=O)(=O)c2ccc(C)cc2)C(OS(=O)(=O)c2ccc(C)cc2)C(COC(=O)c2ccccc2)OS(=O)(=O)c2ccc(C)cc2)cc1 (stereo not given)	> 100	> 100	> 100	> 100 µM	> 10	> 100	> 10	> 100												
Cc1ccc2nc3cc(C)c(=O)cc-3sc2c1	> 100	> 100	> 100	> 100 µM	82.8	> 100	> 100	> 100												
Cc1cccc(C)c1N1C(=O)C(=O)C(c2nc3ccccc3s2)/C(=N/NC(=O)c2ccccc2O)C1=O (stereo not given)	> 100	> 57	> 29.8	> 79.5 µM	8.31	> 67.5	> 100	59.5												
Cc1ccc(S(=O)(=O)c2ccc(C)cc2[N+](=O)[O-])cc1	> 100	> 100	> 100	> 100 µM	> 100	> 100	> 100	> 100												
CC(C(=O)c1ccccc1)C1(O)C(=O)Nc2ccc(Cl)cc21 (stereo not given)	> 100		> 100	> 100 µM	> 100	> 100	> 100	> 100												
COc1cc(NS(C)(=O)=O)ccc1NCc1c2ccccc2nc2ccccc12	> 100	> 100	> 100	36.6 µM	> 100	92.7	> 100	65.2												
CC(=O)OC12c3ccccc3-c3ccccc3C1C(C(=O)O)C2C(=O)O (stereo not given)		> 10	> 10			> 10	> 10	> 10						> 10 µM			> 10			
CCOC(=O)C(Cc1ccccc1)NC(=O)c1[nH]cnc1/N=N/N(C)C (stereo not given)	> 100	> 100	> 100	> 100 µM	> 100		> 100	> 100												
O=C(Nc1ccc(F)cc1)Nc1ccc(Br)c(C(F)(F)F)c1	12.8	11.5		9.33 µM	10.1	5.24	6.27	8.43	2.34 µM	2.13 µM		1.72 µM	2.4 µM	8.59 µM	2.29 µM	1.62	7.4	2.16 µM	2.58 µM	1.63
Cc1[nH]c(N)nc(=S)c1CCC(=O)O	> 100	> 100	> 100	> 100 µM	> 100	> 100	> 100	> 100						> 100 µM						
C/C(CC(=O)Nc1ccccc1C)=N/NS(=O)(=O)c1ccc(C)cc1	> 100	> 100		> 100 µM	> 100	> 100	> 100	> 100												
COc1ccc2c(c1)NC1(O)c3ccccc3C(=O)C21O (stereo not given)	> 100	> 100	> 100	> 100 µM	> 100	> 100	> 100	> 100												
COC(=O)Nc1nc2ccc(C(=O)c3ccccc3)cc2[nH]1	> 100	> 56.3	> 100	50.8 µM and > 36.2 µM	> 100	> 85.9			0.605 µM and 0.534 µM	0.391 µM and 0.142 µM	0.469 µM and 0.347 µM	0.47 µM and 0.353 µM	0.178 µM and 0.0343 µM	0.485 µM and 0.211 µM	0.476 µM and 0.463 µM			0.435 µM and 0.467 µM	0.577 µM and 0.238 µM	
O=S(=O)(N=NC=C1c2ccccc2N(O)c2ccccc21)c1ccc(Cl)cc1	> 100	> 100	> 100	> 100 µM	> 100	> 100	> 100													
O=C(C#Cc1ccccc1)C1=Cc2ccccc2OC1	> 37.6	> 100	3.47	4.21 µM	4.26		30.9							12.5 µM			> 61.1			
Cc1ccc(S(=O)(=O)C2=c3nc4ccccc4cc3=C3C(=O)c4ccccc4C(=O)C32)cc1 (stereo not given)	> 100	> 100	> 100	> 100 µM	> 100	> 100	> 100	> 100												
C=CCC1(C(=O)OC(C)(C)C)C(OC)=C(C(=O)OC(C)(C)C)C2C1C(C(=O)OC(C)(C)C)=C(OC)C2(CC=C)C(=O)OC(C)(C)C (stereo not given)	> 100	> 100			> 100	> 100	> 100	> 100												
C1CN(P2(N3CC3)=NP(N3CC3)(N3CC3)=NP(N3CC3)(N3CC3)=N2)CCO1 (stereo not given)	> 100	> 100	> 100	> 100 µM	> 100	> 100	> 100	> 100												
CCOC(=O)C1=C(C)N(NC(N)=O)C2(N)N(NC(N)=O)C(C)=C(C(=O)OCC)C12C(=O)OCC (stereo not given)	> 100	> 100	> 100	> 100 µM	> 100		> 100	> 100												
